Where two headings read alike, the source gives them in different places.
How the values were obtained:
[1] = assay type: physicochemical; settings: for Cyazofamid Technical, 0 Day / Cyazofamid Technical, 14 Day: storage at 54° C.
Description: Experiment: Cyazofamid technical was mixed with Na2CO3 (Inorganic base) in one batch and with HMT (organic base) in the other. Both the samples were kept at 54° C. for 14 days. After 14 days, the cyazofamid content in both the samples was analyzed. […] The stability of cyazofamid technical was tested in the presence of an inorganic base and compared with the stability in the presence of an organic base, with the following results: […]

[2] = assay type: physicochemical
Description: The following compositions comprising cyazofamid and Mancozeb were prepared, with the different stabilizers substituted. The AHS stability of these formulations was tested.
The formulation prepared according to Example 1 (adjusted for purity of the technical material) was modified to replace the HMT content with 1.0% sodium carbonate. The stability of both the formulations were tested, with the following results: […]

[3] = Example 1 formulation with HMT replaced by 1.0% Na2CO3
[4] = Example 1 formulation with HMT replaced by 1.0% Na2CO3, 14 D AHS at 54° C.
[5] = Example 1 formulation, presence of 1.0% HMT
[6] = Example 1 formulation, presence of 1.0% HMT, 14 D AHS at 54° C.

Molecule | drop in cyazofamid concentration upon accelerated storage (2 weeks at 54° C.) | Degradation with respect to storage at ambient condition (14 days) | Purity after 14 days of storage at 10° C. (glass bottle, air tight plug and cap, 10° C., 14 days) | Purity after 14 days of storage at 54 ± 2° C. (glass bottle, air tight plug and cap, 54 ± 2° C., 14 days) | Purity after 14 days, Room temperature (30-35° C.) (glass bottle, air tight plug and cap, room temperature (30-35° C.), 14 days) | Cyazofamid Technical, 0 Day ([1]; HMT 0.5%) | Cyazofamid Technical, 14 Day ([1]; HMT 0.5%) | Cyazofamid Technical, 0 Day ([1]; Na2CO3 0.5%) | Cyazofamid Technical, 14 Day ([1]; Na2CO3 0.5%) | Cyazofamid content, 0 D ([1]; Presence of 0.5% HMT) | Cyazofamid content, 14 D AHS at 54° C. ([1]; Presence of 0.5% HMT) | Cyazofamid content, 0 D ([1]; Presence of 0.5% Na2CO3) | Cyazofamid content, 14 D AHS at 54° C. ([1]; Presence of 0.5% Na2CO3) | Degradation (%) ([2]; 14 day) | Active content in formulation, 0 D [2, 3] | Active content in formulation, 14 D AHS at 54° C. [2, 4] | Active content in formulation, 0 D [2, 5] | Active content in formulation, 14 D AHS at 54° C. [2, 6] | Degradation (%) [2, 4] | Degradation (%) [2, 6]
Cc1ccc(-c2c(Cl)nc(C#N)n2S(=O)(=O)N(C)C)cc1 [Cyazofamid, 4-chloro-2-cyano-N,N-dimethyl-5-p-tolylimidazole-1-sulfonamide] | 12.5% | 12.87% | 95.36 | 83.25 | 95.55 | 95.10 | 94.27 | 95.98 | 92.38 | 95.1 %, w/w | 94.27 %, w/w | 95.98 %, w/w | 92.38 %, w/w | 11.16% | 6.27 %, w/w | 5.57 %, w/w | 5.59 %, w/w | 5.43 %, w/w |  | 
Mancozeb |  |  |  |  |  |  |  |  |  |  |  |  |  |  | 70.67 %, w/w | 70.49 %, w/w | 70.34 %, w/w | 70.14 %, w/w | 0.25% | 0.28%

From patent US9578875B2, “Fungicidal composition” (priority 2013, dated 2017)
